In PubChem BioAssay (NCI) one finds TGI data, which are given here for seven compounds.

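Cells were grown in 96-well plates and exposed to each compound for 48 hours at five concentrations; endpoints were interpolated linearly between bracketing concentrations, or set to the highest concentration if not reached. The concentration for full growth arrest is given as TGI.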 Where a SMILES comes first, the peptide text is derived from it. [ ]: non-standard residue; d: D form. The star is where a group is joined. Hyp = O=C(O)[CH]1C[CH](O)CN1; Cbz = O=C(OCc1ccccc1)*

Test systems include BT-549 breast; RXF 393 renal; NCI-H226 lung; HCT-116 colon; SN12C renal; OVCAR-5 ovarian; LOX IMVI melanoma; NCI-H23 lung; SNB-19 CNS; MOLT-4 leukemia; COLO 205 colon; SK-MEL-28 melanoma; NCI-H522 lung; T-47D breast; NCI-H460 lung.
Holding throughout (experiment): DTP human tumour cell line panel, 48 h

`C#C[C@@H](OC(=O)c1ccc([N+](=O)[O-])cc1)[C@@H]1C[C@H]2O[C@@H]([C@H](C/C=C/CC)OC(=O)c3ccc([N+](=O)[O-])cc3)C[C@H]2O1`: the TGI in the experiment with BT-549 breast, in the experiment on RXF 393 renal, in the experiment with NCI-H226 lung, in the experiment with HCT-116 colon, in the experiment on SN12C renal and in the experiment with OVCAR-5 ovarian was over 100 µM throughout. Moreover, the TGI in the experiment on LOX IMVI melanoma, with NCI-H23 lung, with SNB-19 CNS, with MOLT-4 leukemia, in the experiment on COLO 205 colon and in the experiment on SK-MEL-28 melanoma was over 100 µM throughout. Also, the concentration for total growth inhibition (TGI) in the experiment with NCI-H522 lung, with T-47D breast and with NCI-H460 lung was over 100 µM in each case.
Regarding `O=S(=O)(N1CCCCN(S(=O)(=O)C(F)(F)F)CCCN(S(=O)(=O)C(F)(F)F)CCCCN(S(=O)(=O)C(F)(F)F)CCCN(S(=O)(=O)C(F)(F)F)CCCCN(S(=O)(=O)C(F)(F)F)CCCN(S(=O)(=O)C(F)(F)F)CCCCN(S(=O)(=O)C(F)(F)F)CCC1)C(F)(F)F`, the TGI (commonly the concentration giving total growth inhibition) in the experiment on BT-549 breast is over 31.6 µM; with RXF 393 renal it was over 31.6 µM; in the experiment on NCI-H226 lung, over 31.6 µM; in the experiment on HCT-116 colon, over 31.6 µM; in the experiment with SN12C renal it was over 31.6 µM; with OVCAR-5 ovarian, over 100 µM. Besides, the TGI in the experiment on LOX IMVI melanoma was over 31.6 µM; with NCI-H23 lung, over 31.6 µM; in the experiment with SNB-19 CNS, over 31.6 µM; in the experiment with MOLT-4 leukemia it was over 31.6 µM; with COLO 205 colon, over 100 µM; in the experiment on SK-MEL-28 melanoma it was over 31.6 µM. The total growth inhibition concentration (TGI) with NCI-H522 lung, with T-47D breast and in the experiment on NCI-H460 lung was over 31.6 µM each time.
Take `O=C1/C(=C\c2cccc(Oc3ccccc3)c2)SC(c2ccccc2)N1Cc1ccccc1` (stereo not given): the TGI is 89 µM in the experiment with BT-549 breast; 64 µM in the experiment with RXF 393 renal; 90.9 µM with NCI-H226 lung; 34 µM with HCT-116 colon; over 100 µM in the experiment on SN12C renal; over 100 µM in the experiment on OVCAR-5 ovarian. Besides, the TGI in the experiment with LOX IMVI melanoma was 32 µM; with NCI-H23 lung, 62.7 µM; in the experiment with SNB-19 CNS, 92.8 µM; in the experiment on MOLT-4 leukemia, 75.7 µM; in the experiment on COLO 205 colon, 22 µM; in the experiment on SK-MEL-28 melanoma it was over 100 µM. Further, the TGI with NCI-H522 lung was 46.1 µM; in the experiment on T-47D breast it was 98.3 µM; with NCI-H460 lung, over 100 µM.
As to `NC(=O)CNC(=O)C1CC(O)CN1C(=O)C1CCCN1C(=O)OCc1ccccc1` (stereo not drawn) (Cbz-Pro-[Hyp]-Gly-NH2; configuration not given here), the TGI in the experiment with BT-549 breast, in the experiment on RXF 393 renal, in the experiment on NCI-H226 lung, in the experiment with HCT-116 colon, in the experiment with SN12C renal and in the experiment on OVCAR-5 ovarian was over 100 µM each time. Besides, the TGI in the experiment on LOX IMVI melanoma, with NCI-H23 lung, in the experiment on SNB-19 CNS, with MOLT-4 leukemia, in the experiment with COLO 205 colon and with SK-MEL-28 melanoma was over 100 µM each time. In addition, the TGI in the experiment with NCI-H522 lung, in the experiment on T-47D breast and in the experiment on NCI-H460 lung was over 100 µM each time.
Regarding `N#CC(C#N)=C(N)/C(C#N)=C/c1ccc(O)c(O)c1`, the TGI with BT-549 breast, in the experiment with RXF 393 renal, in the experiment on NCI-H226 lung, with HCT-116 colon, in the experiment with SN12C renal and in the experiment on OVCAR-5 ovarian was over 100 µM each time. The total growth inhibition concentration (TGI) in the experiment with LOX IMVI melanoma, in the experiment with NCI-H23 lung, with SNB-19 CNS, in the experiment on MOLT-4 leukemia, in the experiment with COLO 205 colon and in the experiment with SK-MEL-28 melanoma was over 100 µM in each case. Besides, the total growth inhibition concentration (TGI) in the experiment on NCI-H522 lung, with T-47D breast and in the experiment with NCI-H460 lung was over 100 µM in each case.
In the case of `CNc1ccc(Cl)cc1C(=O)N1CCC[C@H]1CO`, the TGI in the experiment with BT-549 breast, in the experiment on RXF 393 renal, in the experiment with NCI-H226 lung, in the experiment on HCT-116 colon, in the experiment on SN12C renal and with OVCAR-5 ovarian was over 100 µM throughout. Moreover, the TGI with LOX IMVI melanoma, in the experiment on NCI-H23 lung, with SNB-19 CNS, in the experiment on MOLT-4 leukemia, in the experiment on COLO 205 colon and with SK-MEL-28 melanoma was over 100 µM throughout. The TGI in the experiment with NCI-H522 lung, in the experiment on T-47D breast and in the experiment with NCI-H460 lung was over 100 µM each time.
Turning to `COc1ccc(N2C(=O)C3c4[nH]c5ccc(OC)cc5c4C4CCC(c5ccccc5)CC4C3C2=O)cc1` (stereo not given), the TGI is 58.7 µM with BT-549 breast; 25 µM in the experiment on RXF 393 renal; over 100 µM with NCI-H226 lung; 22.7 µM with HCT-116 colon; 27.9 µM with SN12C renal; over 64.5 µM in the experiment on OVCAR-5 ovarian. In addition, the TGI is 56.3 µM with LOX IMVI melanoma; 46.6 µM in the experiment on NCI-H23 lung; 28.8 µM in the experiment on SNB-19 CNS; 16.9 µM with MOLT-4 leukemia; over 86.1 µM in the experiment on COLO 205 colon; 37 µM with SK-MEL-28 melanoma. In addition, the concentration for total growth inhibition (TGI) in the experiment on NCI-H522 lung was found to be 27.4 µM; in the experiment with T-47D breast, 86.3 µM; in the experiment with NCI-H460 lung it was 21.7 µM.
